Laboratory results as given in PubChem BioAssay (NCI).
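Compound exposure: 48 hours, 5 concentrations, 96-well plates. The concentration for full growth arrest is given as TGI.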

Legend:
Test in all cases: DTP human tumour cell line panel, 48 h
[1] = test system: HOP-92 NSCLC
[2] = test system: SF-295 CNS
[3] = test system: DMS 114 small cell lung
[4] = test system: M14 melanoma
[5] = test system: DMS 273 small cell lung
[6] = test system: A498 renal
[7] = test system: UACC-62 melanoma
[8] = test system: RXF 393 renal
[9] = test system: NCI-H23 lung
[10] = test system: HT29 colon
[11] = test system: SK-OV-3 ovarian
[12] = test system: UACC-257 melanoma
[13] = test system: OVCAR-8 ovarian
[14] = test system: KM12 colon
[15] = test system: OVCAR-5 ovarian
[16] = test system: SK-MEL-28 melanoma
[17] = test system: SNB-19 CNS
[18] = test system: U251 CNS
[19] = test system: HCT-116 colon
[20] = test system: SF-268 CNS
[21] = test system: RXF-631 renal
[22] = test system: EKVX NSCLC
[23] = test system: HOP-62 NSCLC
[24] = test system: K-562 leukemia
[25] = test system: ACHN renal
[26] = test system: A549 NSCLC
[27] = test system: HL-60(TB) leukemia
[28] = test system: NCI-H522 lung
[29] = test system: IGROV1 ovarian
[30] = test system: NCI-H460 lung
[31] = test system: TK-10 renal
[32] = test system: CCRF-CEM leukemia
[33] = test system: MOLT-4 leukemia
[34] = test system: UO-31 renal
[35] = test system: SR leukemia
[36] = test system: M19-MEL melanoma
[37] = test system: HCC-2998 colon
[38] = test system: OVCAR-4 ovarian
[39] = test system: COLO 205 colon
[40] = test system: CAKI-1 renal
[41] = test system: SF-539 CNS
[42] = test system: SN12C renal
[43] = test system: 786-0 renal
[44] = test system: HOP-18 NSCLC
[45] = test system: LOX IMVI melanoma
[46] = test system: HCT-15 colon
[47] = test system: NCI-H226 lung
[48] = test system: LXFL 529 NSCLC
[49] = test system: SW-620 colon
[50] = test system: SNB-78 CNS
[51] = test system: KM20L2 colon
[52] = test system: MALME-3M melanoma
[53] = test system: SK-MEL-2 melanoma
[54] = test system: DLD-1 colon
[55] = test system: OVCAR-3 ovarian
[56] = test system: XF 498 CNS
[57] = test system: SK-MEL-5 melanoma
[58] = test system: SNB-75 CNS
[59] = test system: RPMI-8226 leukemia

Measured: TGI

c1ccc(-c2nc3sccn3n2)cc1
> 100 µM: [1] | [2] | [3] | [4] | [5] | [6] | [7] | [8] | [9] | [10] | [11] | [12] | [13] | [14] | [15] | [16] | [17] | [18] | [19] | [20] | [21] | [22] | [23] | [24] | [25] | [26] | [27] | [28] | [29] | [30] | [31] | [32] | [33] | [34] | [35] | [36]

COc1ccc(NC(=O)CC/C(CC(=O)c2ccccc2Cl)=N\Nc2nnc(C)n2N)cc1
> 100 µM: [1] | [2] | [3] | [37] | [38] | [5] | [7] | [39] | [40] | [8] | [9] | [10] | [11] | [41] | [12] | [13] | [14] | [15] | [16] | [17] | [18] | [42] | [19] | [20] | [21] | [22] | [43] | [44] | [45] | [24] | [25] | [46] | [47] | [26] | [27] | [48] | [29] | [49] | [50] | [51] | [30] | [31] | [52] | [32] | [33] | [34] | [35] | [36] | [53] | [54]

O=C(CC1(O)C(=O)Nc2c(Cl)cccc21)c1ccccc1 (configuration not stated)
> 100 µM: [1] | [2] | [3] | [37] | [4] | [38] | [5] | [39] | [40] | [8] | [9] | [10] | [11] | [12] | [13] | [14] | [15] | [16] | [17] | [55] | [18] | [42] | [20] | [22] | [43] | [23] | [56] | [57] | [44] | [58] | [45] | [24] | [25] | [46] | [47] | [26] | [27] | [28] | [48] | [49] | [50] | [51] | [30] | [59] | [31] | [52] | [32] | [33] | [34] | [53] | [54]

Cc1ccc(C2(C)NC(=S)N(NC(N)=S)C2=S)cc1 (configuration not stated)
> 100 µM: [2] | [3] | [37] | [4] | [38] | [5] | [6] | [7] | [39] | [8] | [9] | [41] | [12] | [13] | [16] | [17] | [55] | [18] | [42] | [19] | [20] | [21] | [22] | [43] | [23] | [56] | [57] | [58] | [45] | [24] | [25] | [46] | [47] | [26] | [27] | [48] | [29] | [49] | [51] | [30] | [59] | [31] | [52] | [32] | [33] | [34] | [35] | [36] | [53] | [54]
